In patent US6683101B2, “Bicyclic cyclohexylamines and their use as NMDA receptor antagonists” (Warner-Lambert Company, priority 2000, dated 2004):
Where a name gives a salt, the structure may show the parent alone.

Columns and labels:
[1] = target: T1, NMDA receptor ([3H]ifenprodil binding site) (Rattus norvegicus, UniProt P35439+Q00960); experiment: [3H]Ifenprodil binding assay, rat forebrain membranes; conditions: adult rat forebrain membranes, 4 nM [3H]-ifenprodil, 2 hours at room temperature, pH 7.4
T1 construct: tissue Zivic-Miller Laboratories, Inc; host or cells: adult rat forebrain, washed buffy coat membrane fraction
Protocol: [^3H]Ifenprodil Binding Assay Protocol:
All buffers and reagents used in assay incubations or to dissolve drugs were prepared using water purified through a Milli-Q reverse osmosis system (Millipore Corp, Bedford, Mass.) and treated with UV emissions. Prior to use in the assays, buffers were further filtered through a sterile Corning filtration unit (Corning Glass Works, Corning, N.Y.) containing a 0.2 micron filter. Buffer used to rinse the membranes on the assay filters was prepared with purified water, but was not refiltered and was stored no longer than 5 days. Stock solutions of the drugs (usually 10 mM) were dissolved in 20 mM HEPES-KOH buffer pH 7.4 (assay buffer) with the addition of 1 to 5 μL of glacial AcOH, if needed, to keep them in solution. For eliprodil, the stock solution was buffer with the addition of 10% DMSO. All subsequent dilutions from stock were made in buffer.
An extensively washed buffy coat membrane fraction was prepared from frozen adult rat forebrains (Zivic-Miller Laboratories, Inc, Zelienople, Pa.) as described previously (Coughenour L. L., Cordon J. J. J. Pharmacol Exp. Ther., 1997;280:584-592) and stored at −80° C. On the day of the assay, pellets were resuspended in 35 mL of assay buffer at pH 7.4 using a Polytron setting 6. After incubation at 37° C. for 30 minutes in a shaking water bath, the homogenate was centrifuged 40,000×g for 10 minutes at 4° C. The pellets were resuspended in fresh buffer and centrifuged 3 more times before final suspension for use in the assay.
[^3H]Ifenprodil Binding. Triplicate incubations were carried out in a volume of 0.5 mL in 1.3 mL polypropylene tubes (Marsh Biomedical Products Inc, Rochester, N.Y.) for 2 hours at room temperature. Incubations contained test agents, membranes (100-200 μg protein), and 4 nM [^3H]-ifenprodil in 20 mM HEPES-KOH buffer, pH 7.4 (assay buffer). Assays were started by addition of the membranes. Bound radioligand was separated by filtration under reduced pressure Using a Tomtec Mach II, 96-well cell harvester (Tomtec Inc, Orange, Colo.). Filtration was through Whatman GF/B glass fiber filters (Whatman Ltd, Maidstone, England), which had been soaked for at least 15 minutes in 0.3% polyethylenimine and allowed to air dry. The filters were rinsed with 3 mL of ice cold assay buffer within 6 seconds. Air was allowed to pass through the filters for an additional 10 seconds to remove residual moisture. The filter mat was supported on a cold (−20° C.) teflon support, and filters from individual wells were separated and placed in Mini Poly-Q vials (Beckman Instrrnents Inc, Fullerton, Calif.) and filled with 4 mL of scintillation cocktail (Beckman Ready Protein^+). Radioactivity retained on the filter was determined by liquid scintillation spectrophotometry. Nonspecific binding was defined as the binding in the presence of 1 mM ifenprodil. Specific binding was 90%.
Data analysis. Binding curves were statistically analyzed for a best one or two site competition fit using GraphPad Prism software (GraphPad Software Inc, San Diego, Calif.). The normalized data was fit by nonweighted nonlinear regression to either [formula]
Control data was entered as 100%, and no parameters were constrained. Inhibition curves were compared by ANOVA with post test comparisons of the logIC50 using Dunnett's multiple comparisons post test or Student's nonpaired, two-tailed t-test (GraphPad InStat software).

NR2A/NR2B = NR2A/NR2B (Rattus norvegicus, UniProt Q00960); experiment: Electrophysiological assay at NMDA receptor subunits expressed in Xenopus oocytes (two-electrode voltage clamp); type: cell-based; conditions: cloned rat NMDA receptor subunits in Xenopus oocytes; currents activated by glutamate (100 μM) and glycine (1-100 μM); read-out: NR2A/NR2B Oocyte IC50
Source text: Electrophysiological Assays at NMDA Receptor Subunits
Preparation of RNA. cDNA clones encoding the NR1A, NR2A, NR2B, and NR2C rat NMDA receptor subtypes were used (see, Moriyoshi et al. Nature (Lond), 1991;354:31-37; Kutsuwada et al. Nature (Lond), 1992;358:36-41; Monyer et al. Science (Washington, D.C.), 1992;256:1217-1221; Ikeda et al. FEBS Lett., 1992;313:34-38; Ishii et al. J. Biol. Chem., 1993;268:2836-2843 for details of these clones or their mouse homologs). The clones were transformed into appropriate host bacteria, and plasmid preparations were made with conventional DNA purification techniques. A sample of each clone was linearized by restriction enzyme digestion of […] and was synthesized with T3 RNA polymerase. The cRNA was diluted to 400 ng/μL and stored in 1 μL aliquots at −80° C. until injection.
The Xenopus oocyte expression system. Mature female Xenopus laevis were anaesthetized (20-40 minutes) using 0.15% 3-aminobenzoic acid ethyl ester (MS-222), and 2-4 ovarian lobes were surgically removed. Oocytes at developmental stages IV-VI (Dumont J. N. J. Morphol., 1972;136:153-180) were dissected from the ovary still surrounded by enveloping ovarian tissues. Follicle-enclosed oocytes were micro-injected with 1:1 mixtures of NR1A:NR2A, 2B, or 2C; injecting 1 to 10 ng of RNA encoding each receptor subunit. NR1A encoding RNA was injected alone at ˜20 ng. Oocytes were stored in Barth's medium containing (in mM): NaCl, 88; KCl, 1; CaCl2, 0.41; Ca (NO3)2, 0.33; MgSO4, 0.82; NaHCO3, 2.4; HEPES 5, pH 7.4, with 0.11 mg/ml gentamicin sulphate. While oocytes were still surrounded by enveloping ovarian tissues, the Barth's medium was supplemented with 0.1% bovine serum. […]
Electrical recordings were made using a conventional two-electrode voltage clamp (Dagan TEV-200) over periods ranging between 3 to 21 days following injection. […] Using oocytes expressing different subunit combinations of NMDA receptor, NMDA currents were activated by co-application of glutamate (100 μM and glycine (1-100 μM). Inhibitory potency of the novel antagonists was assessed on responses elicited by fixed concentrations of glutamate and glycine, by measuring reductions in current induced by progressively increasing concentrations of antagonist. […]
In which Icontrol is the current evoked by agonists alone, pIC50=−log IC50, IC50 is the concentration of antagonist that produced half maximal inhibition, and n is the slope factor (De Lean et al. Am. J. Physiol., 1978;235:E97-102). For incomplete curves, analysis by fitting was unreliable, and IC50 values were calculated by simple regression over linear portions of the curves (Origin: Microcal Software).

T1 sequence (Q00960 27-1482, other chains not shown): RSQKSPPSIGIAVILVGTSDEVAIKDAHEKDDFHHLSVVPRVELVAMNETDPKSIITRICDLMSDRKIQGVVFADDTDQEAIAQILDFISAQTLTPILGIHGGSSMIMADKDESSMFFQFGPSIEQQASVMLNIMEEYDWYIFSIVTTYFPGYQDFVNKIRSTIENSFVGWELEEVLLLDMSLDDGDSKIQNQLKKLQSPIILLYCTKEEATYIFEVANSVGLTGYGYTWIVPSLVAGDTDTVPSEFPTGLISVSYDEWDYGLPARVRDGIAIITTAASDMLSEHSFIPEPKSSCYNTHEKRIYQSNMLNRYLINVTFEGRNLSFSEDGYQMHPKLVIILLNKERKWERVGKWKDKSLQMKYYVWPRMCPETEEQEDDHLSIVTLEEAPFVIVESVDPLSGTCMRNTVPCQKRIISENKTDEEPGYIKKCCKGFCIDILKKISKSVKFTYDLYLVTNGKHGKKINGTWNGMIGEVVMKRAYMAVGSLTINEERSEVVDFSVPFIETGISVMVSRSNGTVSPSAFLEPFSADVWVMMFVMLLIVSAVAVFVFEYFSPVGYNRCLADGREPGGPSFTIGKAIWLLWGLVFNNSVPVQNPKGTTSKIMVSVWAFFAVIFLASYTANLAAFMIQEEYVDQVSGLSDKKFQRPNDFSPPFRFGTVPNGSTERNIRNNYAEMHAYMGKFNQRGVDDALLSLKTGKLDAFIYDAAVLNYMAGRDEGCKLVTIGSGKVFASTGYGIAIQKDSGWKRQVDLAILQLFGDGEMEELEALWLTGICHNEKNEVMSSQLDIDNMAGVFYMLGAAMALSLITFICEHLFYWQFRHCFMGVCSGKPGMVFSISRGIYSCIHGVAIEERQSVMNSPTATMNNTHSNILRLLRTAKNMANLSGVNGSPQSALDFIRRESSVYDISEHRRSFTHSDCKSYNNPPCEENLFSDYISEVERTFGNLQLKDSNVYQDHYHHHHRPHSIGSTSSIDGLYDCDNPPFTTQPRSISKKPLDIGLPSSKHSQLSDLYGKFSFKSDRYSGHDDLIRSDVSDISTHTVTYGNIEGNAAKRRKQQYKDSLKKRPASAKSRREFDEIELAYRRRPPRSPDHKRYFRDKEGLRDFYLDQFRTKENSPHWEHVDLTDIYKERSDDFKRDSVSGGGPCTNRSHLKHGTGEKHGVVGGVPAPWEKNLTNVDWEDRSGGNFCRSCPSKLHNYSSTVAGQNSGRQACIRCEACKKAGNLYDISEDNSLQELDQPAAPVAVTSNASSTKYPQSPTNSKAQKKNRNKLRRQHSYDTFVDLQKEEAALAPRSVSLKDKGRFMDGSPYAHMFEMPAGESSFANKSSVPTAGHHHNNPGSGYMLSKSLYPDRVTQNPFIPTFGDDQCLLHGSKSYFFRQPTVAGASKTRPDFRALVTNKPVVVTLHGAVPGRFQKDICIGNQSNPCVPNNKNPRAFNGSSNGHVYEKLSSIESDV
Chain of NR2A/NR2B (Q00960 27-1482, other chains not shown): as above

| Structure (SMILES) | melting point | IC50 [1] | IC50 (NR2A/NR2B) |
| --- | --- | --- | --- |
| O=c1[nH]c2ccc(CCCN[C@H]3CC[C@H](c4ccc(F)cc4)CC3)cc2o1 (as salt: HCl) [Example 2, 6-{3-[trans-4-(4-Fluorophenyl)cyclohexylamino]propyl}-3H-benzoxazol-2-one] | 295 to 303 °C | – | – |
| CN(CCN[C@H]1CC[C@H](c2ccccc2)CC1)c1ccc2[nH]c(=O)oc2c1 (as salt: HCl) [Example 3, 6-{Methyl[2-(trans-4-phenylcyclohexylamino)ethyl]amino}-3H-benzoxazol-2-one] | 229 to 234 °C | – | – |
| CN(CCCc1ccc2[nH]c(=O)oc2c1)[C@H]1CC[C@H](c2ccc(F)cc2)CC1 (as salt: HCl) [Example 6, 6-(3-{[trans-4-(4-Fluorophenyl)cyclohexyl]methylamino}propyl)-3H-benzoxazol-2-one] | 235 to 241 °C | – | – |
| CCN(CCCc1ccc2[nH]c(=O)oc2c1)[C@H]1CC[C@H](c2ccc(F)cc2)CC1 (as salt: HCl) [Example 7, 6-(3-{[trans-4-(4-Fluorophenyl)cyclohexyl]ethylamino}propyl)-3H-benzoxazol-2-one] | 99 to 109 °C | – | – |
| O=c1[nH]c2ccc(CCCN[C@H]3CC[C@H](c4ccccc4)CC3)cc2o1 [Example 1, 6-[3-(trans-4-Phenylcyclohexylamino)propyl]-3H-benzoxazol-2-one] | 218 to 223 °C | 53 nM | – |
| O=c1[nH]c2ccc(CCCN[C@H]3CC[C@H](c4ccc(F)cc4)CC3)cc2o1 [Example 2, 6-{3-[trans-4-(4-Fluorophenyl)cyclohexylamino]propyl}-3H-benzoxazol-2-one] | – | – | 120 nM |
| CN(CCN[C@H]1CC[C@H](c2ccccc2)CC1)c1ccc2[nH]c(=O)oc2c1 [Example 3, 6-{Methyl[2-(trans-4-phenylcyclohexylamino)ethyl]amino}-3H-benzoxazol-2-one] | – | – | 1000 nM |
| O=c1[nH]c2ccc(SCCN[C@H]3CC[C@H](c4ccccc4)CC3)cc2o1 [Example 4, 6-[2-(trans-4-Phenylcyclohexylamino)ethylsulfanyl]-3H-benzoxazol-2-one] | – | 91 nM | – |
| CN(CC(O)c1ccc2[nH]c(=O)[nH]c2c1)[C@H]1CC[C@H](c2ccccc2)CC1 (stereo partly drawn) [Example 5, 5-{1-Hydroxy-2-[methyl(trans-4-phenylcyclohexyl)amino]ethyl}-1,3-dihydrobenzimidazol-2-one] | – | 1760 nM | – |
| CN(CCCc1ccc2[nH]c(=O)oc2c1)[C@H]1CC[C@H](c2ccc(F)cc2)CC1 [Example 6, 6-(3-{[trans-4-(4-Fluorophenyl)cyclohexyl]methylamino}propyl)-3H-benzoxazol-2-one] | – | 730 nM | – |
| CCN(CCCc1ccc2[nH]c(=O)oc2c1)[C@H]1CC[C@H](c2ccc(F)cc2)CC1 [Example 7, 6-(3-{[trans-4-(4-Fluorophenyl)cyclohexyl]ethylamino}propyl)-3H-benzoxazol-2-one] | – | > 1000 nM | – |

More lines, now with the values ahead:

| melting point | IC50 [1] | IC50 (NR2A/NR2B) | Structure (SMILES) |
| --- | --- | --- | --- |
| 232 to 237 °C | – | – | O=c1[nH]c2ccc(OCCN[C@H]3CC[C@@H](c4ccccc4)CC3)cc2[nH]1 (as salt: HCl) [Example 8a, 5-[2-(cis-4-Phenylcyclohexylamino)ethoxy]-1,3-dihydrobenzimidazol-2-one] |
| 315 to 320 °C | – | – | O=c1[nH]c2ccc(OCCN[C@H]3CC[C@H](c4ccccc4)CC3)cc2[nH]1 (as salt: HCl) [Example 8b, 5-[2-(trans-4-Phenylcyclohexylamino)ethoxy]-1,3-dihydrobenzimidazol-2-one] |
| – | – | 280 nM | O=c1[nH]c2ccc(OCCN[C@H]3CC[C@@H](c4ccccc4)CC3)cc2[nH]1 [Example 8a, 5-[2-(cis-4-Phenylcyclohexylamino)ethoxy]-1,3-dihydrobenzimidazol-2-one] |
| – | – | 120 nM | O=c1[nH]c2ccc(OCCN[C@H]3CC[C@H](c4ccccc4)CC3)cc2[nH]1 [Example 8b, 5-[2-(trans-4-Phenylcyclohexylamino)ethoxy]-1,3-dihydrobenzimidazol-2-one] |
